Results published in ChEMBL document CHEMBL5291721, “A preclinical secondary pharmacology resource illuminates target-adverse drug reaction associations of marketed drugs” (Nat Commun, 2023).

Experiments:
[1] = target: Voltage-dependent L-type calcium channel subunit alpha-1C (Rattus norvegicus, UniProt P22002); format: functional
[2] = target: Gamma-aminobutyric acid receptor subunit alpha-1 (Rattus norvegicus, UniProt P62813)
Glucagon receptor = Glucagon receptor (Homo sapiens, UniProt P47871)
[3] = target: Beta-2 adrenergic receptor (Homo sapiens, UniProt P07550); format: functional, cell-based
Progesterone receptor = target: T1, Progesterone receptor (Homo sapiens, UniProt P06401); format: functional
T1 sequence (P06401 whole entry): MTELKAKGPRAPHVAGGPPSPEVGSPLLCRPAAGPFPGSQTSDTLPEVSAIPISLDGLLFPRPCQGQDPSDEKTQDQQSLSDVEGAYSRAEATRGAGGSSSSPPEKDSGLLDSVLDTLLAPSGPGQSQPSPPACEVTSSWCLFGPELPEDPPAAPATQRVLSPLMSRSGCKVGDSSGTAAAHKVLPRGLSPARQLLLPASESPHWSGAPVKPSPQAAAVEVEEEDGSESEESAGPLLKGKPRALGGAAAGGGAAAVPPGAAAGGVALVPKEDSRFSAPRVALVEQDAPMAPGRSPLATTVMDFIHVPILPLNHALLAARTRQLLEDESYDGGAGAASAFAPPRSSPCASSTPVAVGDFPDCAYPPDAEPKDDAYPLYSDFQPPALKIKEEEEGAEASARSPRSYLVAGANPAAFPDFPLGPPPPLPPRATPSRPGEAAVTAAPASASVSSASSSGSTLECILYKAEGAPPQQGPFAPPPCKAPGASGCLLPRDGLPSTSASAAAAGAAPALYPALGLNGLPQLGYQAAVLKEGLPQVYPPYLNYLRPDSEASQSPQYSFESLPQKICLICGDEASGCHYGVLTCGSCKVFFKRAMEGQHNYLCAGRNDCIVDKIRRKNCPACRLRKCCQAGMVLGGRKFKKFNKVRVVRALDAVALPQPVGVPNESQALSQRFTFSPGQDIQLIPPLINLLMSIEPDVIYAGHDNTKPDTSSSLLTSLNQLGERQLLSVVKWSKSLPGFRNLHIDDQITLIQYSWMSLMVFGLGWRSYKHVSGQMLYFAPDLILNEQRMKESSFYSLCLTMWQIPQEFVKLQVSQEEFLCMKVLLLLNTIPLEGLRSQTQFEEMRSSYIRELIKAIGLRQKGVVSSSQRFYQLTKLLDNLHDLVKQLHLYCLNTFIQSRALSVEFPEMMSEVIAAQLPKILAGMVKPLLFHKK

[4] = target: 5-hydroxytryptamine receptor 2A (Homo sapiens, UniProt P28223); format: functional, cell-based
[5] = target: T2, Alpha-2B adrenergic receptor (Homo sapiens, UniProt P18089)
T2 sequence (P18089 whole entry): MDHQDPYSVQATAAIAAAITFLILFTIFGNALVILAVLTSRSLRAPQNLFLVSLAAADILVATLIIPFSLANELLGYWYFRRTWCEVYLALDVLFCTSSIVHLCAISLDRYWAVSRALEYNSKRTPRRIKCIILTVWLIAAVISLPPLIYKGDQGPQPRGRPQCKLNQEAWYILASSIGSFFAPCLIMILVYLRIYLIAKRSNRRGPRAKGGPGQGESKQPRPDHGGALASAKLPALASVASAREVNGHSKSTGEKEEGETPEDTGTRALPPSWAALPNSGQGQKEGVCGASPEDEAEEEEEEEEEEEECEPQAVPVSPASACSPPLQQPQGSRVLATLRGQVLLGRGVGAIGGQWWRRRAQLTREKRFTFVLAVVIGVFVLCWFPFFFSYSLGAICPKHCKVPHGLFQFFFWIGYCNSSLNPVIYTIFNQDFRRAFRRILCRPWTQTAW

[6] = target: T3, Amine oxidase [flavin-containing] A (Homo sapiens, UniProt P21397); format: functional
T3 sequence (P21397 whole entry): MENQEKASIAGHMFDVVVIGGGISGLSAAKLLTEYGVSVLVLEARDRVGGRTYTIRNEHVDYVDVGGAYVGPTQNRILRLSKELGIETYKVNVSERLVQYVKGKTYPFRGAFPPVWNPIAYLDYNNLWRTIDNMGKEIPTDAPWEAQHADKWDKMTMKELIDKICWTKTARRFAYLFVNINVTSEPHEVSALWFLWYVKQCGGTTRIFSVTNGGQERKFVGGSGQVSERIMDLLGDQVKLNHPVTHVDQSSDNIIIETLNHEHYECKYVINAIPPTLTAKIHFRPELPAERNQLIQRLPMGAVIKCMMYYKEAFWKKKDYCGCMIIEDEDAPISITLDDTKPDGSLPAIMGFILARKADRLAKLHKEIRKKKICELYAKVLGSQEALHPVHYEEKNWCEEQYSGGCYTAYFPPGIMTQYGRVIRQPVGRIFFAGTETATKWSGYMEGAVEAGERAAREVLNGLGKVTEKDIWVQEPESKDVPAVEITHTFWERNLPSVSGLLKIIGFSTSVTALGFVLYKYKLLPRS

[7] = target: Sodium-dependent dopamine transporter (Homo sapiens, UniProt Q01959)
Estrogen receptor beta = Estrogen receptor beta (Homo sapiens, UniProt Q92731)
Note: assay procedure not described here.

Chain of Estrogen receptor beta (Q92731 whole entry): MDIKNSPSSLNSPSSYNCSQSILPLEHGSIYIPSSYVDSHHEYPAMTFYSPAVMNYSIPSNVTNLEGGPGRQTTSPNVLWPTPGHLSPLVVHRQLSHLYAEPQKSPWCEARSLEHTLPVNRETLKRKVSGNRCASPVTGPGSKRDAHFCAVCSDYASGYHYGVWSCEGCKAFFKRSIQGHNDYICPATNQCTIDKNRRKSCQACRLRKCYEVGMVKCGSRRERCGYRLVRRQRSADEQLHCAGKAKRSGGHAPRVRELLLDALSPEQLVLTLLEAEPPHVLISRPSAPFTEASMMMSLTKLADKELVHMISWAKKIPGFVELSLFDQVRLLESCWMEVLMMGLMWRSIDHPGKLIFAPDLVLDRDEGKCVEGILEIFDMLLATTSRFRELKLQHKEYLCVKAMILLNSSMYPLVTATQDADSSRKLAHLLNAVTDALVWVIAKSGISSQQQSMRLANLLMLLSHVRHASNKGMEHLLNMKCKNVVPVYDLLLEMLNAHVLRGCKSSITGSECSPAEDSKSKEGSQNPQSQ
Chain of 5-hydroxytryptamine receptor 2A (P28223 whole entry): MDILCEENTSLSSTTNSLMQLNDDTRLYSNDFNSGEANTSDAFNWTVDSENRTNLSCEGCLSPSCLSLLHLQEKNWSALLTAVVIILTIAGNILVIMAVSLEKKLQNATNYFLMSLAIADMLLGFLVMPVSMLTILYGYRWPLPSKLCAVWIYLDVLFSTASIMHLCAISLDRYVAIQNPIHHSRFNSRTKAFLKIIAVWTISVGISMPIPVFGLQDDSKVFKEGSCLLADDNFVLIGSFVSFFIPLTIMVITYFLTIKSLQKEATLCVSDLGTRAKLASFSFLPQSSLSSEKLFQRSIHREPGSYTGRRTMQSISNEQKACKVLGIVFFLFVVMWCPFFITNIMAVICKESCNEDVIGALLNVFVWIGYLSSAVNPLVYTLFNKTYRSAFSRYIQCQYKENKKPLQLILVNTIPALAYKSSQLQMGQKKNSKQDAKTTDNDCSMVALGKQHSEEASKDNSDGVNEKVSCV
Chain of Beta-2 adrenergic receptor (P07550 whole entry): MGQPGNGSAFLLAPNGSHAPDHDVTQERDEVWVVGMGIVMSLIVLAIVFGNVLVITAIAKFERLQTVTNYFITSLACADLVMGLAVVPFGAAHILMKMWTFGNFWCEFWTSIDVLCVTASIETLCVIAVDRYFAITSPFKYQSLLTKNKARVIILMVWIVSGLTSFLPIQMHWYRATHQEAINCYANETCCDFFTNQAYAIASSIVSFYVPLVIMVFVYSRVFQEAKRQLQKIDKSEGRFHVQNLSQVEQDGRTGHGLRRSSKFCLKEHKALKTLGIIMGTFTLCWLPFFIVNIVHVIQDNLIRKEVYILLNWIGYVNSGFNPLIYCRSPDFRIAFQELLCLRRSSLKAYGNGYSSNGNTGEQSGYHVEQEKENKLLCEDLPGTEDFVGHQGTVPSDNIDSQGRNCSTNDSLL
Chain of Sodium-dependent dopamine transporter (Q01959 whole entry): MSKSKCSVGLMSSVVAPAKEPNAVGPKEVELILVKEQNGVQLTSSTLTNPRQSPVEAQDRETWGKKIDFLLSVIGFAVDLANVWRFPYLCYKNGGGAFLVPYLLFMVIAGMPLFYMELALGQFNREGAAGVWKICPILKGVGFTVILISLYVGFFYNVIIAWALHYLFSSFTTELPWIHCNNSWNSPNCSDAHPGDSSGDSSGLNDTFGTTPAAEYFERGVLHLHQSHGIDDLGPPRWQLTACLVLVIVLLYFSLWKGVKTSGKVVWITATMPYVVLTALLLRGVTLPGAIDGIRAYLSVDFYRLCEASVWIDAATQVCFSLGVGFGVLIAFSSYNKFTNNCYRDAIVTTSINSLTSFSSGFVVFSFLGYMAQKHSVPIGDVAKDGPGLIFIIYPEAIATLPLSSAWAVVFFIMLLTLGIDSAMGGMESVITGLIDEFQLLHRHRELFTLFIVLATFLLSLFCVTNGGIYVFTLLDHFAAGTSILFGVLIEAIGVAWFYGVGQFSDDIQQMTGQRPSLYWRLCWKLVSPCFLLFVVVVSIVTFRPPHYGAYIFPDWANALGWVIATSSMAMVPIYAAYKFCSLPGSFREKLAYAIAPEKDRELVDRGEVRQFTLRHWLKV
Chain of Gamma-aminobutyric acid receptor subunit alpha-1 (P62813 whole entry): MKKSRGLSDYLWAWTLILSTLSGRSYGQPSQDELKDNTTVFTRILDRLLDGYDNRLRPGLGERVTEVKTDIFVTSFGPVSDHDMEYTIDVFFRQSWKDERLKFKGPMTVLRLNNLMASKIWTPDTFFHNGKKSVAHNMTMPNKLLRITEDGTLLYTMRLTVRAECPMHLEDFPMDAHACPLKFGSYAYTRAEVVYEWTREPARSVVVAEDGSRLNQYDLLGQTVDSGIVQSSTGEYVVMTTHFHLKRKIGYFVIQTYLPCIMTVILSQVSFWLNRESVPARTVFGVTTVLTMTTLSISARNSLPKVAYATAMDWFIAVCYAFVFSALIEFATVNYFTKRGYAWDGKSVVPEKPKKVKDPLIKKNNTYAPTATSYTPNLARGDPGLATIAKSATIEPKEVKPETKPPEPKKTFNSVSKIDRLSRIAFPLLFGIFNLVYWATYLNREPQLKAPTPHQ
Chain of Glucagon receptor (P47871 whole entry): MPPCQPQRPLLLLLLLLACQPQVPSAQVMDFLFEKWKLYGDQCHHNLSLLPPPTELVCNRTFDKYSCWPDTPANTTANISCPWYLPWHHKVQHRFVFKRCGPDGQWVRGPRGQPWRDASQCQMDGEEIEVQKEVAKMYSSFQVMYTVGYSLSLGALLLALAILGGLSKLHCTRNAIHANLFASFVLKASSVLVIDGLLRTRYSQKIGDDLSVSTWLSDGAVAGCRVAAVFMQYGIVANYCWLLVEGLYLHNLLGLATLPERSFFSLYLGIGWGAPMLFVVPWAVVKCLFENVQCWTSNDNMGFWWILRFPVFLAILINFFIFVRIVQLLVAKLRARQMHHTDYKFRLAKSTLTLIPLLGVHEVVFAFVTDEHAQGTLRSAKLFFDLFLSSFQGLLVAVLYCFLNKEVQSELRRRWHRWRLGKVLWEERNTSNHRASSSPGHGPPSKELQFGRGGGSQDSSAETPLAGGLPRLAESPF

SMILES | AC50 [1] [µM] | AC50 [2] [µM] | AC50 [3] [µM] | AC50 (Progesterone receptor) [µM] | AC50 [4] [µM] | AC50 [5] [µM] | AC50 (Glucagon receptor) [µM] | AC50 [6] [µM] | AC50 [7] [µM] | AC50 (Estrogen receptor beta) [µM]
COc1cc(Nc2c(C#N)cnc3cc(OCCCN4CCN(C)CC4)c(OC)cc23)c(Cl)cc1Cl [BOSUTINIB] | > 10 | – | – | – | – | > 10 | > 30 | > 30 | 7.55 | > 30
CC(=O)OCC(=O)[C@@]1(O)CC[C@H]2[C@@H]3CCC4=CC(=O)CC[C@]4(C)[C@H]3C(=O)C[C@@]21C [CORTISONE ACETATE] | – | > 30 | > 30 | – | – | – | – | – | – | –
CN(CCOc1ccc(NS(C)(=O)=O)cc1)CCc1ccc(NS(C)(=O)=O)cc1 [DOFETILIDE] | – | > 10 | – | – | > 30 | > 10 | > 30 | > 30 | > 30 | –
C#C[C@]1(O)CC[C@H]2[C@@H]3CCc4cc(O)ccc4[C@H]3CC[C@@]21C [ETHINYL ESTRADIOL] | > 10 | > 10 | – | – | – | – | > 30 | > 30 | 0.8 | –
NC(N)=Nc1nc(CSCCC(N)=NS(N)(=O)=O)cs1 [FAMOTIDINE] | > 10 | > 10 | > 30 | – | – | – | > 30 | – | – | –
C[C@@H]1O[C@@H]1P(=O)(O)O [FOSFOMYCIN] | > 10 | > 10 | – | > 30 | > 10 | > 10 | – | – | – | –
CCc1ccc(CCOc2ccc(CC3SC(=O)NC3=O)cc2)nc1 (configuration not stated) [PIOGLITAZONE] | > 10 | > 10 | – | – | – | – | > 30 | > 30 | > 30 | > 30
NC(=O)c1cnccn1 [PYRAZINAMIDE] | > 30 | > 30 | – | > 30 | – | – | > 30 | > 30 | > 30 | > 30
O=C(NC[C@H]1CN(c2ccc(N3CCOCC3=O)cc2)C(=O)O1)c1ccc(Cl)s1 [RIVAROXABAN] | – | – | > 30 | > 30 | > 30 | > 30 | – | > 30 | > 30 | –

More lines, main results first:

AC50 [1] [µM] | AC50 [2] [µM] | AC50 [3] [µM] | AC50 (Progesterone receptor) [µM] | AC50 [4] [µM] | AC50 [5] [µM] | SMILES | AC50 (Glucagon receptor) [µM] | AC50 [6] [µM] | AC50 [7] [µM] | AC50 (Estrogen receptor beta) [µM]
> 10 | > 10 | > 30 | – | – | – | CCOC(=O)[C@H](CCc1ccccc1)N[C@@H](C)C(=O)N1CCC[C@H]1C(=O)O | > 30 | – | – | –
> 10 | > 10 | – | > 30 | > 10 | > 10 | COC(=O)N[C@H](C(=O)N[C@@H](Cc1ccccc1)[C@@H](O)CN(Cc1ccc(-c2ccccn2)cc1)NC(=O)[C@@H](NC(=O)OC)C(C)(C)C)C(C)(C)C [ATAZANAVIR] | – | – | – | –
> 30 | > 30 | – | > 30 | 13 | > 30 | COc1ccc2c(c1)C(=O)N(CCc1ccc(S(=O)(=O)NC(=O)NC3CCCCC3)cc1)C(=O)C2(C)C [GLIQUIDONE] | – | – | – | –
> 10 | > 10 | – | – | – | – | NS(=O)(=O)c1cc2c(cc1Cl)NCNS2(=O)=O [HYDROCHLOROTHIAZIDE] | > 30 | – | – | > 30
> 10 | > 10 | – | > 10 | > 10 | > 10 | CN1C(=O)CC(C)(c2ccccc2)C1=O (configuration not stated) [METHSUXIMIDE] | – | – | – | –
> 10 | > 10 | – | – | – | 0.34 | CCc1nn(CCCN2CCN(c3cccc(Cl)c3)CC2)c(=O)n1CCOc1ccccc1 [NEFAZODONE] | > 30 | – | – | > 30
> 10 | > 10 | – | > 10 | > 10 | > 10 | CC(C(=O)O)c1ccc(C(=O)c2cccs2)cc1 (configuration not stated) [SUPROFEN] | – | – | – | –
> 10 | > 10 | – | 1.09 | > 10 | > 10 | Cc1ccc(C(=O)c2cc(O)c(O)c([N+](=O)[O-])c2)cc1 [TOLCAPONE] | – | – | – | –
> 10 | > 10 | > 30 | > 30 | > 30 | > 30 | O=C(CCCCCCC(=O)Nc1ccccc1)NO [VORINOSTAT] | > 10 | – | – | –
